Assay results from US10722484B2, “Methods of cancer treatment” (K-Gen, Inc., priority 2016, dated 2020).
Where two headings read alike, the source gives them in different places.

Legend:
[1] = system: Namalwa (Burkitt's lymphoma); experiment: Combination viability/proliferation assays; details: K101A (0.1 μM) or K102 (0.001 μM)
Experimental: Briefly, cells at density of 1,000-10,000 cells/well in 96-well plates or 200-1600 cells/well in 384-well plates were seeded and incubated at 37° C. for 24 hours before addition of compounds. A series of 9 different concentrations of compound stocks (500×) were prepared by 3-fold serial dilutions in DMSO. […] After 96 hours of incubation, 35 μL or 50 μL of CellTiter Glo reagent (Promega) was added to each well and luminescence was measured after 10 minutes using EnVision (PerkinElmer). Luminescence from cells treated with DMSO alone was set as Max and % of inhibition was calculated as follows: Inhibition %=(Max-Sample value)/Max*100. Data were analyzed using XLfit software (ID Business Solutions Ltd.) or GraphPad software and IC50, relative IC50, and % of top inhibition were calculated.
Various drugs or compounds (Table 10) were screened and assayed in 384-well plates as 9-point 3-fold dilution series alone and in combination with 2-3 doses of the specified PKC activator compounds (e.g., K101A, K101E, and K102). The top concentration for the tested PKC activator compound was set at roughly the IC50 when the same testing compound was used as a single agent assayed in the same cell line. The next dose was either 3-fold or 10-fold dilution from the top concentration. […]

[2] = system: A549 lung cancer cell line; experiment: Combination viability/proliferation assays (384-well IC50 ratio, 96-well MacSynergy II); type: cell-based; details: for Ratio ([…] DMSO IC50/combination IC50): NC: no change
Experimental: A 96-well MacSynergy II format for combination test was also used. […] The analysis was done with the SQRT(Data) scale and the four parameter Hill curve was fitted using XLfit5.1 (the MacSynergy II Excel Spreadsheet) for the inhibition data. Synergy (positive number) or Antagonism (negative number) volumes were calculated. […] Three-dimensional MacSynergy II graphs were generated where positive values indicated synergism and negative values indicated antagonism.

H358 = experiment: Proliferation assay (CellTiter Glo); type: cell-based; details: HE58, 96 hours
Experimental: (§1) The dose range for most compounds was 4.6 nM-30 μM. The dose ranges for some compounds were adjusted downward to 0.46 nM-3 μM or 0.08 nM-0.5 μM or 0.03 nM-0.2 μM. […] The results are shown in Tables 3-6 for pancreatic cancer, lung cancer, colon/gastric cancer, and leukemia.

Capan-1 = experiment: Proliferation assay (CellTiter Glo); type: cell-based; details: 96 hours
Experimental: as §1

LS180 = experiment: Proliferation assay (CellTiter Glo); type: cell-based; details: 96 hours
Experimental: as §1

KP-4 = experiment: Proliferation assay (CellTiter Glo); type: cell-based; details: 96 hours
Experimental: as §1

SW620 = experiment: Proliferation assay (CellTiter Glo); type: cell-based; details: 96 hours
Experimental: as §1

H441 = experiment: Proliferation assay (CellTiter Glo); type: cell-based; details: 96 hours
Experimental: as §1

HCT116 = experiment: Proliferation assay (CellTiter Glo); type: cell-based; details: 96 hours
Experimental: as §1

AGS = experiment: Proliferation assay (CellTiter Glo); type: cell-based; details: 96 hours
Experimental: as §1

A549 = experiment: Proliferation assay (CellTiter Glo); type: cell-based; details: 96 hours
Experimental: as §1

H727 = experiment: Proliferation assay (CellTiter Glo); type: cell-based; details: 96 hours
Experimental: as §1

HL60 = experiment: Proliferation assay (CellTiter Glo); type: cell-based, human; details: 96 hours
Experimental: as §1

THP1 = experiment: Proliferation assay (CellTiter Glo); type: cell-based, human; details: 96 hours
Experimental: as §1

HT29 = experiment: Proliferation assay (CellTiter Glo); type: cell-based; details: HT29 (RAS WT); 96 hours
Experimental: as §1
(§2) Other cancer cell lines having wild-type K-RAS status and K-RAS mutation at G12 were also screened using the PKC activator compounds. […] K104 was tested in a range of 0.03 nM-0.2 μM. […] The dose ranges were adjusted downward to 0.46 nM-3 μM for K102 and 0.08 nM-0.5 μM for K103 for some cell lines. The results of the screening of cancer cells lines with wild-type K-RAS status and K-RAS mutations at the G12 positions are presented in Table 7.

Colo205 = experiment: Proliferation assay (CellTiter Glo); type: cell-based; details: Colo205 (RAS WT); 96 hours
Experimental: as §1, §2

RPMI8226 = experiment: Proliferation assay (CellTiter Glo); type: cell-based; details: RPM18226; 96 hours
Experimental: as §1, §2

H1915 = experiment: Proliferation assay (CellTiter Glo); type: cell-based; details: H1915 (RAS WT); 96 hours
Experimental: as §1, §2

H838 = experiment: Proliferation assay (CellTiter Glo); type: cell-based; details: H838 (RAS WT); 96 hours
Experimental: as §1, §2

SW900 = experiment: Proliferation assay (CellTiter Glo); type: cell-based; details: SW900 (K-RAS: G12V); 96 hours
Experimental: as §1, §2

BxPC-3 = experiment: Proliferation assay (CellTiter Glo); type: cell-based; details: BxPC-3 (RAS WT); 96 hours
Experimental: as §1, §2

MiaPaCa-2 = experiment: Proliferation assay (CellTiter Glo); type: cell-based; details: 96 hours
AsPC-1 = experiment: Proliferation assay (CellTiter Glo); type: cell-based
Experimental: as §1

Pan2.03 = experiment: Proliferation assay (CellTiter Glo); type: cell-based
Experimental: as §1

Pan2.13 = experiment: Proliferation assay (CellTiter Glo); type: cell-based
Experimental: as §1

CCRF-CEM = experiment: Proliferation assay (CellTiter Glo); type: cell-based; details: CCRF-CEM
Experimental: as §1

[3] = system: pancreatic, lung, colon and leukemia cancer cell lines; experiment: Proliferation assay, summary over the panel of cancer cell lines; type: cell-based
Experimental: PKC activator compounds were tested in a panel of K-RAS mutant pancreatic, lung, and colon cancer cell lines, as well as a number of leukemia cell lines having either mutant K-RAS or N-RAS.
as §1

**Q.** Which results are given for `CC[C@H](Nc1ncnc2[nH]cnc12)c1nc2cccc(F)c2c(=O)n1-c1ccccc1` [Idelalisib]?
**A.** effect in combination with K101A or K102 [1]: synergistic anti-proliferative effect; increase of inhibition ([1]; roughly 0.03-3 μM idelalisib/CAL-101): at least 20%; Ratio ([…] DMSO IC50/combination IC50) ([2]; A549, in combination with 0.0002 μM K102): 0.81; Ratio ([…] DMSO IC50/combination IC50) ([2]; A549, in combination with 0.002 μM K102): 1.76; Ratio ([…] DMSO IC50/combination IC50) ([2]; A549, in combination with 0.005 μM K101A): 1.04; Ratio ([…] DMSO IC50/combination IC50) ([2]; A549, in combination with 0.02 μM K102): 3.55; Ratio ([…] DMSO IC50/combination IC50) ([2]; A549, in combination with 0.05 μM K101A): 1.89; Ratio ([…] DMSO IC50/combination IC50) ([2]; A549, in combination with 0.5 μM K101A, ratio >2 synergistic, <0.5 antagonistic): 5.05; effect in combination with the PKC activator compounds in inhibiting the growth of A549 cells ([2]; PKC activator compounds (K101A, K101E, K102)): strong synergy; Combination in A549: K101A (synergism/antagonism) ([2]; agent assayed in combination with K101A, A549, * 2-3 concentrations, # full concentration ranges): Synergism; Combination in A549: K101E (synergism/antagonism) ([2]; agent assayed in combination with K101E, A549): Synergism; Combination in A549: K102 (synergism/antagonism) ([2]; agent assayed in combination with K102, A549, * 2-3 concentrations, # full concentration ranges): Synergism

**Q.** What does the source list for `CC(=O)OC12CC(C)C3(O)C(C=C(CO)CC4(O)C(O)C(C)=CC43)C1C2(C)C` (stereo not shown) [Compound K101C]?
**A.** Top Inhibition % (H358; % of top inhibition): 44.0%; EC50 (H358; absolute EC50, read-out: Ab EC50): > 30 µM; EC50 (H358; relative EC50, read-out: Re EC50): 4.98 µM; EC50 (Capan-1; Capan-1 (K-RAS: G12V), absolute EC50, read-out: Ab EC50): > 30 µM; Top Inhibition % (Capan-1; Capan-1, % of top inhibition): 35.7%; EC50 (Capan-1; Capan-1, relative EC50, read-out: Re EC50): 5.4 µM; EC50 (LS180; LS180 (K-RAS: G12D), absolute EC50, read-out: Ab EC50): > 30 µM; Top Inhibition % (LS180; LS180, % of top inhibition): 6.8%; EC50 (KP-4; KP-4 (K-RAS: G12C), absolute EC50, read-out: Ab EC50): 11 µM; Top Inhibition % (KP-4; KP-4, % of top inhibition): 70.4%; EC50 (KP-4; KP-4, relative EC50, read-out: Re EC50): 6.77 µM; EC50 (SW620; SW620 (K-RAS: G12V), absolute EC50, read-out: Ab EC50): > 30 µM; Top Inhibition % (SW620; SW620, % of top inhibition): 0.0%; EC50 (H441; H441 (K-RAS: G12V), absolute EC50, read-out: Ab EC50): > 30 µM; Top Inhibition % (H441; H441, % of top inhibition): 37.0%; EC50 (H441; H441, relative EC50, read-out: Re EC50): 7.44 µM; EC50 (HCT116; HCT116 (K-RAS: G13D), absolute EC50, read-out: Ab EC50): > 30 µM; Top Inhibition % (HCT116; HCT116, % of top inhibition): 12.2%; EC50 (AGS; AGS (gastric, K-RAS: G12D), absolute EC50, read-out: Ab EC50): > 30 µM; Top Inhibition % (AGS; AGS, % of top inhibition): 25.3%; EC50 (AGS; AGS, relative EC50, read-out: Re EC50): 11 µM; EC50 (A549; A549 (K-RAS: G12S), absolute EC50, read-out: Ab EC50): 13 µM; Top Inhibition % (A549; A549, % of top inhibition): 70.3%; EC50 (A549; A549, relative EC50, read-out: Re EC50): 6.68 µM; EC50 (H727; H727 (K-RAS: G12V), absolute EC50, read-out: Ab EC50): > 30 µM; Top Inhibition % (H727; H727, % of top inhibition): 42.8%; EC50 (H727; H727, relative EC50, read-out: Re EC50): 3.61 µM; EC50 (HL60; HL60 (N-RAS: Q61L), absolute EC50, read-out: Ab EC50): 17 µM; Top Inhibition % (HL60; HL60, % of top inhibition): 63.9%; EC50 (HL60; HL60, relative EC50, read-out: Re EC50): 13 µM; EC50 (THP1; THP1 (N-RAS: G12D), absolute EC50, read-out: Ab EC50): 16 µM; Top Inhibition % (THP1; THP1, % of top inhibition): 51.4%; EC50 (THP1; THP1, relative EC50, read-out: Re EC50): 8.11 µM; Top Inhibition % (HT29): 4.8%; Top Inhibition % (Colo205): 73.2%; Top Inhibition % (RPMI8226): 22.72%; Top Inhibition % (H1915): 28.9%; Top Inhibition % (H838): 20.2%; Top Inhibition % (SW900): 10.9%; Top Inhibition % (BxPC-3): 36.67%; EC50 (MiaPaCa-2; MiaPaCa-2 (K-RAS: G12C), absolute EC50, read-out: Ab EC50): > 30 µM; Top Inhibition % (MiaPaCa-2; MiaPaCa-2, % of top inhibition): 40.1%; EC50 (MiaPaCa-2; MiaPaCa-2, relative EC50, read-out: Re EC50): 4.37 µM

**Q.** How did the “Top Inhibition %” value (AsPC-1; AsPC-1, % of top inhibition, 96 hours) turn out when `CCC/C=C/C=C/C(=O)O[C@H]1/C(=C/C(=O)OC)C[C@H]2C[C@H]([C@@H](C)O)OC(=O)C[C@H](O)C[C@@H]3C[C@H](OC(C)=O)C(C)(C)[C@](O)(C[C@@H]4C/C(=C/C(=O)OC)C[C@H](/C=C/C(C)(C)[C@]1(O)O2)O4)O3` [Compound K104, Bryostatin 1] was run?
**A.** Its value is 4.2%.

**Q.** What about the EC50 (AsPC-1; Homo sapiens, ASPC1, 96 h, read-out: Ab EC50) of the same compound?
**A.** The EC50 was > 0.2 µM.

**Q.** And the EC50 (Pan2.03; 96 h, read-out: Ab EC50)?
**A.** The EC50 was > 0.2 µM.

**Q.** What about the “Top Inhibition %” value (Pan2.03; Pan2.03, % of top inhibition, 96 hours) of the same compound?
**A.** The value was 0.0%.

**Q.** And the EC50 (Pan2.13; 96 h, read-out: Ab EC50)?
**A.** Its EC50 is > 0.2 µM.

**Q.** What about the “Top Inhibition %” value (Pan2.13; Pan2.13, % of top inhibition, 96 hours) of the same compound?
**A.** Its value is 32.2%.

**Q.** And the “Top Inhibition %” value (CCRF-CEM; % of top inhibition, 96 hours)?
**A.** The value was 6.0%.

**Q.** What about the EC50 (CCRF-CEM; Homo sapiens, 96 h, read-out: Ab EC50) of the same compound?
**A.** Its EC50 is > 0.2 µM.

**Q.** And the “Top Inhibition %” value (HT29)?
**A.** Its value is 4.3%.

**Q.** And the “Top Inhibition %” value (Colo205)?
**A.** The value was 49.4%.

**Q.** And the “Top Inhibition %” value (H1915)?
**A.** Its value is 25.1%.

**Q.** What about the “Top Inhibition %” value (H838) of the same compound?
**A.** The value was 20.0%.

**Q.** And the “Top Inhibition %” value (BxPC-3)?
**A.** The value was 3.99%.

**Q.** And the “activity in the proliferation assay / cancer cell lines” value [3]?
**A.** Its value is “much lower activity”.

**Q.** What about the “potency in proliferation inhibition relative to prostratin” value ([3]; comparison with prostratin) of the same compound?
**A.** The value was “less potent”.
